Test results published in PubChem BioAssay AID2060896 (Molecular Pharmacology Branch, DTP, NCI, 2025).

Tested on: 941728-121-R-J1-PDC complex spheroid viability
Test: Anticancer human tumor 941728-121-R-J1-PDC patient-derived lung adenocarcinoma cell line growth inhibition [RAS]
Conditions: for IC50: curve of first compound; for viability, T/C: stronger effect = lower value
Description: RAS pathway inhibitors in Combinations in Complex Spheroids
A high-throughput screen of multi-cell type tumor spheroids was designed to identify active combinations of RAS pathway inhibitors and targeted small molecules. Complex spheroids include a stromal component modeled by human endothelial cells (HUVEC) and fibroblasts modeled by human mesenchymal stem cells (MSCs). The concentration ranges selected for each drug and investigational agent were based upon clinically achievable concentrations if the clinical Cmax of the agent was known.
Compounds. The drugs and investigational agents: abemaciclib (NSC768073), cobimetinib (NSC768068), divarasib (GDC6063, NSC841802), docetaxel (NSC628503), GDC-1971 (RLY-1971, NSC841576), gemcitabine (NSC613327), inavolisib (NSC800729), ipatasertib (NSC767898), KB-0742 (NSC834161), MRTX-1133 (NSC836407), osimertinib (NSC779217), RMC-4630 (NSC839698), RMC-6236 (NSC851965), RMC-6291 (NSC852671), Ro-3306 (NSC812927), sapanisertib (NSC764658), SN-38 (NSC673596), staurosporine (NSC755774), SY5609 (NSC837396), and tovorafenib (DAY101, NSC766906), were obtained from the National Cancer Institute (NCI) Developmental Therapeutics Program Chemical Repository. The FDA-approved anticancer drug set is available from the NCI Developmental Therapeutics Program. […] The stock solutions were prepared in dimethyl sulfoxide (DMSO, Sigma-Aldrich, St. Louis, MO, cat. D2650) at 800-fold the tested concentration and stored at -70 degrees C prior to their use. All drugs and investigational agents were tested over a range starting from a high concentration at or near the clinical Cmax and decreasing in half-log increments. If the clinical Cmax for an agent had not been determined, the highest concentration tested was 10 microM.
Cell Culture. All cells were maintained in an incubator at 37 degrees C and 5% CO2 with 95% humidity. The PDC lines were cultured according to standard operating procedures established by the NCI PDMR. All PDCs were thawed and cultured in Matrigel-coated flasks prepared with a working solution of 1X Ham's F-12 nutrient mix, without supplementation (Invitrogen, Waltham, MA, cat. 11765054), 100 U/mL penicillin-streptomycin (Invitrogen, cat. 15140122), and 2.5% Matrigel (Corning Inc., Corning, NY, cat. 354248) for the first three passages. The 362531-283-R-J2-PDC and 782815-120-R-J1-PDC lines were cultured in 6C/Colon 1B media, which includes advanced DMEM/F-12 (Thermo Fisher Scientific, cat. 12634028), 10 mM HEPES (Thermo Fisher Scientific, cat. 15630080), 1X GlutaMAX supplement (Thermo Fisher Scientific, cat. 35050061), 0.1 mg/mL primocin (InvivoGen, San Diego, CA, cat. ant-pm-2), 10% defined fetal bovine serum, heat inactivated (HyClone Laboratories Inc., Logan, UT, cat. SH30070.03HI), 50% L-WRN conditioned media (ATCC, cat. CRL-3276), 1.25 mM N-Acetyl-L-cysteine (Sigma-Aldrich, cat. A9165), 10 mM nicotinamide (Sigma-Aldrich, cat. N0636), 1X B-27 supplement (Thermo Fisher Scientific, cat. 17504044), 1X N-2 supplement (Thermo Fisher Scientific, cat. 17502048), 50 ng/mL human EGF (Thermo Fisher Scientific, cat. PHG0311), and 10 microM Y-27632 dihydrochloride (Tocris Bioscience, cat. 1254). The K12877-001-R-J1-PDC line was cultured in 6I media, which includes all 6C/Colon 1B media plus 10 ng/mL human FGF-10 (PeproTech, cat. 100-26), 1 ng/mL human FGF-2 (PeproTech, cat. 100-18B), 1 µM prostaglandin E2 (Tocris Bioscience, cat. 2296), […] hydrocortisone (Sigma-Aldrich, cat. H4001), and […] bovine insulin (Sigma-Aldrich, cat. I6634). The K86415-001-R-J1-PDC line was cultured in 6D media, which includes all 6C/Colon 1B media components minus the L-WRN conditioned media. The 485176-168-R4-J1-PDC was cultured in PANC media, which includes all 6C/Colon 1B media plus 100 ng/mL human FGF-10 (PeproTech, cat. 100-26), 500 nM SB-431542 (Selleckchem, cat. S1067), and 10 nM gastrin (Tocris Bioscience, cat. 3006). […]
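Also: spheroids exposed to compounds for 7 days before readout.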
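For viability, T/C in this document: 100% = DMSO vehicle control viability.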

Structure (SMILES): CCc1c2c(nc3ccc(O)cc13)-c1cc3c(c(=O)n1C2)COC(=O)[C@]3(O)CC + C#Cc1c(F)ccc2cc(O)cc(-c3ncc4c(N5CC6CCC(C5)N6)nc(OCC56CCCN5CC(F)C6)nc4c3F)c12
- IC50 (second compound 0.0316 µM): 26.2 nM
- IC50 (second compound 0.1 µM): 12.2 nM
- IC50 (second compound 0.316 µM): < 0.949 nM
- IC50 (second compound 1 µM): < 0.949 nM
- IC50 (second compound 3.16 µM): < 0.949 nM
- IC50 (second compound 10 µM): < 0.949 nM
- viability, T/C (second compound 0.0316 µM, first compound 0.000949 µM): 77.8%
- viability, T/C (second compound 0.0316 µM, first compound 0.003 µM): 61.1%
- viability, T/C (second compound 0.0316 µM, first compound 0.00949 µM): 54.1%
- viability, T/C (second compound 0.0316 µM, first compound 0.03 µM): 49.8%
- viability, T/C (second compound 0.0316 µM, first compound 0.0949 µM): 51.6%
- viability, T/C (second compound 0.0316 µM, first compound 0.3 µM): 40.5%
- viability, T/C (second compound 0.1 µM, first compound 0.000949 µM): 69.4%
- viability, T/C (second compound 0.1 µM, first compound 0.003 µM): 58.8%
- viability, T/C (second compound 0.1 µM, first compound 0.00949 µM): 45%
- viability, T/C (second compound 0.1 µM, first compound 0.03 µM): 53.6%
- viability, T/C (second compound 0.1 µM, first compound 0.0949 µM): 48.4%
- viability, T/C (second compound 0.1 µM, first compound 0.3 µM): 39.9%
- viability, T/C (second compound 0.316 µM, first compound 0.000949 µM): 52.9%
- viability, T/C (second compound 0.316 µM, first compound 0.003 µM): 42.4%
- viability, T/C (second compound 0.316 µM, first compound 0.00949 µM): 42.5%
- viability, T/C (second compound 0.316 µM, first compound 0.03 µM): 42.6%
- viability, T/C (second compound 0.316 µM, first compound 0.0949 µM): 44.7%
- viability, T/C (second compound 0.316 µM, first compound 0.3 µM): 34.6%
- viability, T/C (second compound 1 µM, first compound 0.000949 µM): 34.8%
- viability, T/C (second compound 1 µM, first compound 0.003 µM): 37.9%
- viability, T/C (second compound 1 µM, first compound 0.00949 µM): 30.6%
- viability, T/C (second compound 1 µM, first compound 0.03 µM): 31.8%
- viability, T/C (second compound 1 µM, first compound 0.0949 µM): 32.4%
- viability, T/C (second compound 1 µM, first compound 0.3 µM): 29%
- viability, T/C (second compound 3.16 µM, first compound 0.000949 µM): 25.6%
- viability, T/C (second compound 3.16 µM, first compound 0.003 µM): 26.1%
- viability, T/C (second compound 3.16 µM, first compound 0.00949 µM): 26.7%
- viability, T/C (second compound 3.16 µM, first compound 0.03 µM): 23.5%
- viability, T/C (second compound 3.16 µM, first compound 0.0949 µM): 21.4%
- viability, T/C (second compound 3.16 µM, first compound 0.3 µM): 19%
- viability, T/C (second compound 10 µM, first compound 0.000949 µM): 21.9%
- viability, T/C (second compound 10 µM, first compound 0.003 µM): 18.5%
- viability, T/C (second compound 10 µM, first compound 0.00949 µM): 18.6%
- viability, T/C (second compound 10 µM, first compound 0.03 µM): 14.8%
- viability, T/C (second compound 10 µM, first compound 0.0949 µM): 13.3%
- viability, T/C (second compound 10 µM, first compound 0.3 µM): 8.73%

Structure (SMILES): CC(Nc1ccc2c(c1)OCCn1cc(N3C(=O)OCC3C(F)F)nc1-2)C(N)=O (centres undefined) + C#Cc1c(F)ccc2cc(O)cc(-c3ncc4c(N5CC6CCC(C5)N6)nc(OCC56CCCN5CC(F)C6)nc4c3F)c12
- IC50 (second compound 0.0316 µM): 75.7 nM
- IC50 (second compound 0.1 µM): 49.4 nM
- IC50 (second compound 0.316 µM): < 31.6 nM
- IC50 (second compound 1 µM): < 31.6 nM
- IC50 (second compound 3.16 µM): < 31.6 nM
- IC50 (second compound 10 µM): < 31.6 nM
- viability, T/C (second compound 0.0316 µM, first compound 0.0316 µM): 64.5%
- viability, T/C (second compound 0.0316 µM, first compound 0.1 µM): 44.4%
- viability, T/C (second compound 0.0316 µM, first compound 0.316 µM): 37%
- viability, T/C (second compound 0.0316 µM, first compound 1 µM): 35.9%
- viability, T/C (second compound 0.0316 µM, first compound 3.16 µM): 29%
- viability, T/C (second compound 0.0316 µM, first compound 10 µM): 29.6%
- viability, T/C (second compound 0.1 µM, first compound 0.0316 µM): 56.9%
- viability, T/C (second compound 0.1 µM, first compound 0.1 µM): 39.5%
- viability, T/C (second compound 0.1 µM, first compound 0.316 µM): 33.2%
- viability, T/C (second compound 0.1 µM, first compound 1 µM): 28.1%
- viability, T/C (second compound 0.1 µM, first compound 3.16 µM): 31.3%
- viability, T/C (second compound 0.1 µM, first compound 10 µM): 32.5%
- viability, T/C (second compound 0.316 µM, first compound 0.0316 µM): 40.3%
- viability, T/C (second compound 0.316 µM, first compound 0.1 µM): 38.1%
- viability, T/C (second compound 0.316 µM, first compound 0.316 µM): 33.4%
- viability, T/C (second compound 0.316 µM, first compound 1 µM): 29.9%
- viability, T/C (second compound 0.316 µM, first compound 3.16 µM): 30.4%
- viability, T/C (second compound 0.316 µM, first compound 10 µM): 23.1%
- viability, T/C (second compound 1 µM, first compound 0.0316 µM): 33.8%
- viability, T/C (second compound 1 µM, first compound 0.1 µM): 29.8%
- viability, T/C (second compound 1 µM, first compound 0.316 µM): 27.6%
- viability, T/C (second compound 1 µM, first compound 1 µM): 27.8%
- viability, T/C (second compound 1 µM, first compound 3.16 µM): 27.4%
- viability, T/C (second compound 1 µM, first compound 10 µM): 25.9%
- viability, T/C (second compound 3.16 µM, first compound 0.0316 µM): 28.3%
- viability, T/C (second compound 3.16 µM, first compound 0.1 µM): 28.4%
- viability, T/C (second compound 3.16 µM, first compound 0.316 µM): 28%
- viability, T/C (second compound 3.16 µM, first compound 1 µM): 23.4%
- viability, T/C (second compound 3.16 µM, first compound 3.16 µM): 26.2%
- viability, T/C (second compound 3.16 µM, first compound 10 µM): 23.2%
- viability, T/C (second compound 10 µM, first compound 0.0316 µM): 22.8%
- viability, T/C (second compound 10 µM, first compound 0.1 µM): 21.2%
- viability, T/C (second compound 10 µM, first compound 0.316 µM): 19.5%
- viability, T/C (second compound 10 µM, first compound 1 µM): 18.5%
- viability, T/C (second compound 10 µM, first compound 3.16 µM): 17.4%
- viability, T/C (second compound 10 µM, first compound 10 µM): 15.4%
